Assay results published in patent US10047113B2, “Feruloyl-CoA:monolignol transferase” (Wisconsin Alumni Research Foundation (WARF), priority 2010, dated 2018).

Key:
[1] = Solubility of the FMT reaction product; type: physicochemical
Method: The FMT activity assay contained 100 mM MOPS pH 6.8, 1 mM dithiothreitol (DTT), 1 mM feruloyl-CoA, 1 mM coniferyl alcohol, 3.9 μg of purified FMT protein and deionized water to a volume of 50 μL. After a 30-minute incubation, 1 μL of 10 M hydrochloric acid was added to stop the reaction. Because the product synthesized in the reaction, coniferyl ferulate (CAFA), is insoluble, 50 μL of methanol was added to solubilize the CAFA. Prior to UPLC, protein and insoluble material were removed by filtering through an Amicon Ultracel 10K membrane filter (Millipore). The flow-through was analyzed using an Acquity Ultra Performance LC with an Acquity UPLC BEH C18 1.7 μm 2.1×100 mm column and the Acquity Console and Empower 2 Software, all from Waters Corporation. The solvents used in this method were solvent A, 0.1% trifluoroacetic acid, and solvent B, 100% acetonitrile. Samples were analyzed using the following gradient conditions, 13% B, for 5 minutes, 1 minute linear gradient to 42% B, held for 4 minutes, 1 minute linear gradient to 100% B, held for 1 minutes and 3 minutes at 13% B with a flow rate of 0.3 ml/minute. This method was then used to analyze a 10 μL injection of each assay reaction; standards for each of the substrates along with chemically synthesized CAFA were used to determine retention times for each compound. […]

[2] = test system: feruloyl-CoA:monolignol transferase (FMT); assay: Feruloyl-CoA:monolignol transferase (FMT) enzymatic assay, UPLC detection of product; type: biochemical, Angelica sinensis; settings: purified recombinant enzyme; for FMT enzyme activity with monolignol as substrate: feruloyl-CoA as acyl donor, FIGS. 2, 4, 5; for product formation from acyl-CoA substrate: coniferyl alcohol as acceptor, FIGS. 2, 6, 7
Method: The feruloyl-CoA, p-coumaroyl-CoA, and caffeoyl-CoA substrates used in the FMT assay were enzymatically synthesized using the tobacco 4-coumarate-CoA-ligase (4CL) with a c-terminal HIS tag in pCRT7/CT TOPO, provided by Eran Pichersky. Following a method modified from Beuerle and Pichersky (Anal. Biochem. 302(2): 305-12 (2001)) 3.3 mg of ferulic acid, coumaric acid or caffeic acid, 2 mg coenzyme A, and 6.9 mg ATP were added to 50 mM Tris-hydrochloride pH 8 and 2.5 mM magnesium chloride in a final volume of 10 ml. The reaction was started by adding 0.25 mg 4CL, protein purified as described by the method of Beurerle and Pichershy. After a five-hour incubation at room temperature, additional 6.9 mg ATP, 2 mg coenzyme A, and 0.25 mg purified 4CL were added and the reaction was incubated overnight. The CoA esters were purified on an SPE cartridge as described in Beuerle and Pichersky (2001).
The FMT activity assay contained 100 mM MOPS pH 6.8, 1 mM dithiothreitol (DTT), 1 mM feruloyl-CoA, 1 mM coniferyl alcohol, 3.9 μg of purified FMT protein and deionized water to a volume of 50 μL. After a 30-minute incubation, 1 μL of 10 M hydrochloric acid was added to stop the reaction. Because the product synthesized in the reaction, coniferyl ferulate (CAFA), is insoluble, 50 μL of methanol was added to solubilize the CAFA. Prior to UPLC, protein and insoluble material were removed by filtering through an Amicon Ultracel 10K membrane filter (Millipore). The flow-through was analyzed using an Acquity Ultra Performance LC with an Acquity UPLC BEH C18 1.7 μm 2.1×100 mm column and the Acquity Console and Empower 2 Software, all from Waters Corporation. The solvents used in this method were solvent A, 0.1% trifluoroacetic acid, and solvent B, 100% acetonitrile. Samples were analyzed using the following gradient conditions, 13% B, for 5 minutes, 1 minute linear gradient to 42% B, held for 4 minutes, 1 minute linear gradient to 100% B, held for 1 minutes and 3 minutes at 13% B with a flow rate of 0.3 ml/minute. This method was then used to analyze a 10 μL injection of each assay reaction; standards for each of the substrates along with chemically synthesized CAFA were used to determine retention times for each compound.
Purified recombinant enzyme was assayed for FMT activity using a reaction mixture containing 2 mM coniferyl alcohol, […], 100 mM HEPES pH 7.4 and 1 mM DTT. The second most abundant BAHD acyltransferase gene when incubated with Coniferyl alcohol and feruloyl-CoA produced a compound with the retention time of authentic coniferyl ferulate (CAFA) (FIG. 2). […] The addition of methanol to 50% after stopping the enzyme with acid was required to analyze the product by UPLC. The insolubility of the product made partial purification easy as the product was separated from the substrates by centrifugation.
This partial purified product was analyzed by NMR. The identity of the product as CAFA was confirmed by ^1H-NMR (FIG. 3). The enzyme was tested with p-coumaryl alcohol (FIG. 4) and sinapyl alcohol (FIG. 5) in addition to coniferyl alcohol (FIG. 2). The enzyme is active with all three monolignols, i.e., p-coumaryl alcohol, coniferyl alcohol and sinapyl alcohol. The enzyme was tested with p-coumaroyl-CoA (FIG. 6) and caffeoyl-CoA (FIG. 7) as well as feruloyl-CoA (FIG. 2).

FMT enzyme activity with monolignol as substrate [2]	product formation from acyl-CoA substrate [2]	Compound	also measured
–	–	COc1cc(/C=C/COC(=O)/C=C/c2ccc(O)c(OC)c2)ccc1O [coniferyl ferulate]	solubility in assay reaction mixture ([1]; FMT activity assay, 100 mM MOPS pH 6.8, methanol added to solubilize): insoluble; solubility in water ([1]; product of enzyme reaction, methanol to 50% needed for UPLC): mostly insoluble in water
active	–	COc1cc(/C=C/CO)ccc1O [coniferyl alcohol]	–
active	–	COc1cc(/C=C/CO)cc(OC)c1O [sinapyl alcohol]	–
–	very little product is produced	CC(C)(COP(=O)(O)OP(=O)(O)OC[C@H]1O[C@@H](n2cnc3c(N)ncnc32)[C@H](O)[C@@H]1OP(=O)(O)O)[C@@H](O)C(=O)NCCC(=O)NCCSC(=O)/C=C/c1ccc(O)c(O)c1 [caffeoyl-CoA]	–
–	substantial product is formed	COc1cc(/C=C/C(=O)SCCNC(=O)CCNC(=O)[C@H](O)C(C)(C)COP(=O)(O)OP(=O)(O)OC[C@H]2O[C@@H](n3cnc4c(N)ncnc43)[C@H](O)[C@@H]2OP(=O)(O)O)ccc1O [feruloyl-CoA]	–
active	–	OC/C=C/c1ccc(O)cc1 [p-coumaryl alcohol]	–
–	very little product is produced	CC(C)(COP(=O)(O)OP(=O)(O)OC[C@H]1O[C@@H](n2cnc3c(N)ncnc32)[C@H](O)[C@@H]1OP(=O)(O)O)[C@@H](O)C(=O)NCCC(=O)NCCSC(=O)/C=C/c1ccc(O)cc1 [p-coumaroyl-CoA]	–
